Results reported in ChEMBL document CHEMBL1153387 (J Med Chem, 2009).
pEC50, pIC50, pKi: −log10 of the molar value. Activity calls are given as the source filed them. No cut-off for these calls is given here. Starred links: 1 amine or outer side, 2 acyl side, 3 side chain; linkers in the order of their positions; H or OH if unused. Non-standard residues stand in square brackets, D forms with d. Residues, ends and D or L forms follow the SMILES beside them. *: point of attachment. NMeβ3hLys = CN([C@@H](CCCCN)CC(=O)[*:2])[*:1]; Pentanoyl(5-guanidino) = NC(N)=NCCCCC(=O)*; X1 = [N-]=[N+]=N[C@@H](CCCNC(=N)N)C(=O)*; NMeR = CN[C@@H](CCCNC(=N)N)C(=O)O; αMeR = C[C@](N)(CCCNC(=N)N)C(=O)O; Tle = CC(C)(C)[C@H](N)C(=O)O; β3hK = NCCCC[C@H](N)CC(=O)O; Ahp = NCCCCCCC(=O)O

Columns and labels:
[1] = Metabolic stability in human serum assessed as half time of disappearance at 1 mM by MALDI-TOF mass spectrometry assay; format: ADME, cell-free; conditions: read-out: T50
Serum [2] = assay: Metabolic stability in rat serum assessed as compound degradation rate at 1 mM by MALDI-TOF mass spectrometry assay; format: ADME, cell-free; conditions: 1000 µM
[3] = molecular target: T1, Neurotensin receptor type 1 (Homo sapiens, UniProt P30989); assay: Agonist activity at NTR1 in human HT-29 cells assessed as increase in intracellular calcium concentration by FLIPR assay; format: functional, cell-based
T1 sequence (P30989 whole entry): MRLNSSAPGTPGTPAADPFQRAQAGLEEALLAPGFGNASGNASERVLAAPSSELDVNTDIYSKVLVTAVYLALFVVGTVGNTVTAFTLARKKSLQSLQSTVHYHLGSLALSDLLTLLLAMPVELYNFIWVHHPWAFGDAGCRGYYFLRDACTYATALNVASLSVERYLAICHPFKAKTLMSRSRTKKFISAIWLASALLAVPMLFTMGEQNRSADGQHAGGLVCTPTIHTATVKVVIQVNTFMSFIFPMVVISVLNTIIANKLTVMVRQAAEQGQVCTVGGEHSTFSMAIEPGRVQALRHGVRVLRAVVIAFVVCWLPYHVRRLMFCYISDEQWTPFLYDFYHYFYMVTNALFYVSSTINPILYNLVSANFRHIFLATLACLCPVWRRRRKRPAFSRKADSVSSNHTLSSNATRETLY

[4] = molecular target: T1, Neurotensin receptor type 1; assay: Displacement of [125I]I-Tyr(3)NT from human NTR1
Serum [5] = assay: Metabolic stability in human serum assessed as compound degradation rate at 1 mM by MALDI-TOF mass spectrometry assay; format: ADME, cell-free; conditions: 1000 µM
[6] = Metabolic stability in rat serum assessed as half time of disappearance at 1 mM by MALDI-TOF mass spectrometry assay; format: ADME, cell-free; conditions: read-out: T50
Rattus norvegicus [7] = assay: Hypothermic activity in Sprague-Dawley rat assessed as time duration of maximal body temperature decrease at 5 mg/kg, ip; format: functional; conditions: route intraperitoneal
Rattus norvegicus [8] = assay: Hypothermic activity in Sprague-Dawley rat assessed as decrease in core body temperature at 5 mg/kg, ip at time of maximal body temperature decrease; format: functional; conditions: route intraperitoneal
[9] = molecular target: T1, Neurotensin receptor type 1; assay: Agonist activity at NTR1 in human HT-29 cells assessed as increase in intracellular calcium concentration in presence of NTR1 antagonist SR-48692 by FLIPR assay; format: functional, cell-based
[10] = molecular target: T1, Neurotensin receptor type 1; assay: Binding affinity to human NTR1

Row | half-life at 1000 µM [1] | Activity (Serum [2]) | pEC50 [3] | pIC50 [4] | pKi [4] | Activity (Serum [5]) | half-life at 1000 µM [6] | Activity [9] | SMILES | Time (Rattus norvegicus [7]) | Activity (Rattus norvegicus [8]) | pKi [10]
1 | 57.2 h | 0.117 µmol/min | 8.10 | 7.57 | 7.69 | 0.146 µmol/min | 71.8 h | – | CN[C@@H](CCCCN)CC(=O)N[C@@H](CCCN=C(N)N)C(=O)N1CCC[C@H]1C(=O)N[C@@H](Cc1ccc(O)cc1)C(=O)N[C@H](C(=O)N[C@@H](CC(C)C)C(=O)O)C(C)(C)C (NMeβ3hLys-RPY[Tle]L-OH) | – | – | –
2 | 124 h | 0.089 µmol/min | 6.12 | 6.06 | 6.19 | 0.068 µmol/min | 94.3 h | – | CC(=O)N[C@@H](CCCNC(=N)N)C(=O)N[C@@H](CCCCN)C(=O)N1CCC[C@H]1C(=O)N[C@@H](Cc1c[nH]c2ccccc12)C(=O)N[C@H](C(=O)N[C@@H](CC(C)C)C(=O)O)C(C)(C)C (Ac-RKPW[Tle]L-OH) | 270 min | -4.3 °C | –
3 | 0.263 h | 37 µmol/min | 6.66 | 6.39 | 6.52 | 31.8 µmol/min | 0.225 h | – | CC(C)C[C@H](NC(=O)[C@@H](NC(=O)[C@H](Cc1c[nH]c2ccccc12)NC(=O)[C@@H]1CCCN1C(=O)[C@H](CCCCN)NC(=O)[C@@H](N)CCCN=C(N)N)C(C)(C)C)C(=O)O (H-RKPW[Tle]L-OH) | – | – | –
4 | 41 h | 0.111 µmol/min | 7.59 | 8.40 | 8.52 | 0.204 µmol/min | 74.8 h | – | CC(C)C[C@H](NC(=O)[C@@H](NC(=O)[C@H](Cc1ccc(O)cc1)NC(=O)[C@@H]1CCCN1C(=O)[C@H](CCCNC(=N)N)NC(=O)CCCCCCN)C(C)(C)C)C(=O)O (H-[Ahp]RPY[Tle]L-OH) | 90 min | -2.58 °C | –
5 | 132 h | 0.095 µmol/min | 5.73 | 5.54 | 5.66 | 0.064 µmol/min | 87.8 h | – | CC(C)C[C@H](NC(=O)[C@@H](NC(=O)[C@H](Cc1c[nH]c2ccccc12)NC(=O)[C@@H]1CCCN1C(=O)[C@H](CCCCN)NC(=O)[C@@](C)(N)CCCNC(=N)N)C(C)(C)C)C(=O)O (H-[αMeR]KPW[Tle]L-OH) | 120 min | -4.28 °C | –
6 | 54.5 h | 0.146 µmol/min | 7.24 | 6.74 | 6.87 | 0.153 µmol/min | 57 h | – | CC(=O)N[C@@H](CCCCN)CC(=O)N[C@@H](CCCN=C(N)N)C(=O)N1CCC[C@H]1C(=O)N[C@@H](Cc1ccc(O)cc1)C(=O)N[C@H](C(=O)N[C@@H](CC(C)C)C(=O)O)C(C)(C)C (Ac-[β3hK]RPY[Tle]L-OH) | – | – | –
7 | 120 h | 0.123 µmol/min | 6.82 | 6.85 | 6.98 | 0.07 µmol/min | 67.8 h | inactive | CC(C)C[C@H](NC(=O)[C@@H](NC(=O)[C@H](Cc1c[nH]c2ccccc12)NC(=O)[C@@H]1CCCN1C(=O)[C@H](CCCCN)NC(=O)[C@H](CCCNC(=N)N)N=[N+]=[N-])C(C)(C)C)C(=O)O (X1-KPW[Tle]L-OH) | 240 min | -4.29 °C | –
8 | 103 h | 0.078 µmol/min | 6.11 | 6.07 | 6.20 | 0.081 µmol/min | 108 h | – | CC(C)C[C@H](NC(=O)[C@@H](NC(=O)[C@H](Cc1c[nH]c2ccccc12)NC(=O)[C@@H]1CCCN1C(=O)[C@H](CCCCN)NC(=O)CCCCNC(=N)N)C(C)(C)C)C(=O)O ({Pentanoyl(5-guanidino)}-KPW[Tle]L-OH) | 240 min | -5.02 °C | –
9 | 0.25 h | 39.9 µmol/min | 8.21 | 7.97 | 8.09 | 33.4 µmol/min | 0.21 h | inactive | CC(C)C[C@H](NC(=O)[C@@H](NC(=O)[C@H](Cc1ccc(O)cc1)NC(=O)[C@@H]1CCCN1C(=O)[C@H](CCCNC(=N)N)NC(=O)C[C@@H](N)CCCCN)C(C)(C)C)C(=O)O (H-[β3hK]RPY[Tle]L-OH) | 90 min | -1.53 °C | –

The remaining lines, values behind:

Row | SMILES | half-life at 1000 µM [1] | Activity (Serum [2]) | pEC50 [3] | pIC50 [4] | pKi [4] | Activity (Serum [5]) | half-life at 1000 µM [6] | Activity [9] | Time (Rattus norvegicus [7]) | Activity (Rattus norvegicus [8]) | pKi [10]
10 | CC[C@@H](C)[C@H](NC(=O)[C@H](Cc1ccc(O)cc1)NC(=O)[C@@H]1CCCN1C(=O)[C@H](CCCNC(=N)N)NC(=O)[C@H](CCCNC(=N)N)NC)C(=O)N[C@@H](CC(C)C)C(=O)O | 14 h | 1.92 µmol/min | 9.07 | 9.42 | 9.54 | 0.593 µmol/min | 4.33 h | – | 120 min | -1.55 °C | –
11 | CC[C@H](C)[C@H](NC(=O)[C@H](Cc1ccc(O)cc1)NC(=O)[C@@H]1CCCN1C(=O)[C@H](CCCNC(=N)N)NC(=O)[C@H](CCCNC(=N)N)NC(C)=O)C(=O)N[C@@H](CC(C)C)C(=O)O | 11.9 h | 2.38 µmol/min | – | – | – | 0.701 µmol/min | 3.5 h | – | – | – | –
12 | CC(=O)N[C@@H](CCCCN)CC(=O)N[C@@H](CCCNC(=N)N)C(=O)N1CCC[C@H]1C(=O)N[C@@H](Cc1ccc(O)cc1)C(=O)N[C@H](C(=O)N[C@@H](CC(C)C)C(=O)O)C(C)(C)C (Ac-[β3hK]RPY[Tle]L-OH) | – | – | – | – | – | – | – | – | 150 min | -3.54 °C | –
13 | CC[C@H](C)[C@H](NC(=O)[C@H](Cc1ccc(O)cc1)NC(=O)[C@@H]1CCCN1C(=O)[C@H](CCCN=C(N)N)NC(=O)[C@H](CCCN=C(N)N)NC(C)=O)C(=O)N[C@@H](CC(C)C)C(=O)O | – | – | – | – | – | – | – | – | 90 min | -0.71 °C | –
14 | CC[C@@H](C)[C@H](NC(=O)[C@H](Cc1ccc(O)cc1)NC(=O)[C@@H]1CCCN1C(=O)[C@H](CCCNC(=N)N)NC(=O)[C@H](CCCNC(=N)N)N=[N+]=[N-])C(=O)N[C@@H](CC(C)C)C(=O)O | – | – | – | – | – | – | – | inactive | 240 min | -1 °C | –
15 | COc1cccc(OC)c1-c1cc(C(=O)NC2(C(=O)O)C3CC4CC(C3)CC2C4)nn1-c1ccnc2cc(Cl)ccc12 (stereo not given) [REMINERTANT] | – | – | – | 9.00 | – | – | – | – | – | – | –
16 | CN[C@@H](CCCNC(=N)N)C(=O)N[C@@H](CCCCN)C(=O)N1CCC[C@H]1C(=O)N[C@@H](Cc1c[nH]c2ccccc12)C(=O)N[C@H](C(=O)N[C@@H](CC(C)C)C(=O)O)C(C)(C)C (H-[NMeR]KPW[Tle]L-OH) | 123 h | 0.052 µmol/min | 6.70 | 6.62 | 6.74 | 0.068 µmol/min | 162 h | – | 270 min | -5.52 °C | 7.02
17 | CC[C@H](C)[C@H](NC(=O)[C@H](Cc1ccc(O)cc1)NC(=O)[C@@H]1CCCN1C(=O)[C@H](CCCN=C(N)N)NC(=O)[C@@H](N)CCCN=C(N)N)C(=O)N[C@@H](CC(C)C)C(=O)O | – | – | – | – | – | – | – | – | 300 min | -0.55 °C | –
18 | CC[C@@H](C)[C@H](NC(=O)[C@H](Cc1ccc(O)cc1)NC(=O)[C@@H]1CCCN1C(=O)[C@H](CCCNC(=N)N)NC(=O)CCCCNC(=N)N)C(=O)N[C@@H](CC(C)C)C(=O)O | 3.83 h | 5.74 µmol/min | 8.73 | 8.57 | 8.70 | 2.17 µmol/min | 1.45 h | – | 120 min | -0.99 °C | –
19 | CC[C@H](C)[C@H](NC(=O)[C@H](Cc1ccc(O)cc1)NC(=O)[C@@H]1CCCN1C(=O)[C@H](CCCNC(=N)N)NC(=O)[C@@H](N)CCCNC(=N)N)C(=O)N[C@@H](CC(C)C)C(=O)O | 0.282 h | 49.8 µmol/min | – | – | – | 29.6 µmol/min | 0.167 h | – | – | – | –
20 | CC(C)C[C@H](NC(=O)[C@@H](NC(=O)[C@H](Cc1c[nH]c2ccccc12)NC(=O)[C@@H]1CCCN1C(=O)[C@H](CCCCN)NC(=O)[C@@H](N)CCCNC(=N)N)C(C)(C)C)C(=O)O (H-RKPW[Tle]L-OH) | – | – | – | – | – | – | – | – | 120 min | -2.11 °C | –
21 | CC[C@@H](C)[C@H](NC(=O)[C@H](Cc1ccc(O)cc1)NC(=O)[C@@H]1CCCN1C(=O)[C@H](CCCNC(=N)N)NC(=O)[C@@](C)(N)CCCNC(=N)N)C(=O)N[C@@H](CC(C)C)C(=O)O | 18.8 h | 2.28 µmol/min | – | – | – | 0.444 µmol/min | 3.65 h | – | 150 min | -0.28 °C | –
22 | CN[C@@H](CCCCN)CC(=O)N[C@@H](CCCNC(=N)N)C(=O)N1CCC[C@H]1C(=O)N[C@@H](Cc1ccc(O)cc1)C(=O)N[C@H](C(=O)N[C@@H](CC(C)C)C(=O)O)C(C)(C)C (NMeβ3hLys-RPY[Tle]L-OH) | – | – | – | – | – | – | – | – | 180 min | -3.68 °C | –
23 | CC[C@@H](C)[C@H](NC(=O)[C@H](Cc1ccc(O)cc1)NC(=O)[C@@H]1CCCN1C(=O)[C@H](CCCN=C(N)N)NC(=O)[C@H](CCCN=C(N)N)N=[N+]=[N-])C(=O)N[C@@H](CC(C)C)C(=O)O | 5.05 h | 3.53 µmol/min | 9.11 | 9.01 | 9.14 | 1.65 µmol/min | 2.35 h | – | – | – | –
